Test results as given in patent US20230257383A1, “COMPOUND SERVING AS BTK INHIBITOR, PREPARATION METHOD THEREFOR, AND USE THEREOF” (CHENGDU HYPERWAY PHARMACEUTICALS CO., LTD., priority 2020, published 2023).
Read-outs that look alike come from different tables or passages of the source.

Experiments:
TMD8 cell proliferation = assay: In vitro cell proliferation inhibitory activity test (CTG), TMD8; format: cell-based; settings: Homo sapiens, TMD8, 72 h, TMD8 cells
Procedure: (§1) Test Example 4: In Vitro Cell Proliferation Inhibitory Activity Test
(§2) Cells were cultured in 1640 medium, added with 10% inactivated FBS and 1% double antibiotics, and cultured at 37° C. and 5% CO2.
(§3) (1) Cells were routinely cultured until the cell density was 80%-90%, and the cells were harvested when their number reached the requirement.
(§4) (2) Cells were resuspended with corresponding culture medium, counted, and prepared into cell suspension at appropriate density.
(§5) (3) The cell suspension was added to a 96-well plate, 100 μL per well.
(§6) (4) Cells were cultured overnight in a 37° C., 5% CO2 incubator.
(§7) (1) The compounds to be tested were diluted with DMSO to make a stock solution with a final concentration of 20 mM for later use.
(§8) (2) The stock solution was diluted 10 times from 20 mM to 2 mM with DMSO, and then diluted 3 times from 2 mM to 9 concentrations.
(§9) (3) The blank control wells were cells plus 0.5% DMSO, as high-reading control wells.
(§10) (4) Wells with no cells and only medium were used as low-reading control wells.
(§11) 4: Cell treatment with compound
(§12) (1) 24 h after the cells were plated, the compounds acted alone, and 99 μL of growth medium was added to each well, followed by 1 μL of the compound prepared in step 3. The plate was shaken gently to mix uniformly, and then placed in a 37° C., 5% CO2 incubator.
(§13) (2) The cell plate was placed in an incubator for 72 h.
(§14) 5: Detection by CTG method
(§15) (1) The cell plate to be tested was placed at room temperature for 30 min, and 100 μL of medium was discarded from each well.
(§16) (2) 100 μL of CTG reagent (CelltiterGlo kit) was added to each well, placed on a fast shaker for 2 min, and stood at room temperature in the dark for 30 min.
(§17) (3) The chemiluminescent signal value was read with the Envision instrument.
(§18) IC50 was calculated by using GraphPad Prism 8 software. The IC50 (half inhibitory concentration) of the compound was derived using the following nonlinear fitting formula, and the results are shown in the following table:
(§19) Y=Bottom+(Top−Bottom)/(1+10^((Log IC50−X)×HillSlope))
(§20) X: log value of compound concentration, Y: inhibition rate (% inhibition)
(§21) Inhibition rate (% inhibition)=(reading of high-reading control well-reading of compound well)/(reading of high-reading control well-reading of low-reading control well)×100

DOHH2 cell proliferation = assay: In vitro cell proliferation inhibitory activity test (CTG), DOHH2; format: cell-based; settings: Homo sapiens, DOHH-2
Procedure: as §1, §2, §3, §4, §5, §6, §7, §8, §9, §10, §11, §12, §13, §14, §15, §16, §17, §18, §19, §20, §21

[1] = Liver microsome metabolic stability test (human); format: in vitro ADME; settings: liver microsomes, read-out: CLint (μL/min/mg) Human
Procedure: (§22) 1: To the sample wells of T0, T5, T10, T20, T30, T60 and NCF60, 10 μL of the test or reference working solution and 80 μL of microsome working solution (hepatic microsome with a protein concentration of 0.5 mg/mL) were added, and to Blank60 well, only the microsome working solution was added. Then samples of the Blank60, T5, T10, T20, T30 and T60 other than TO and NCF60 were placed in a 37° C. water bath and pre-incubated for about 10 min.
(§23) 2: To the TO sample well, 300 μL of stop solution (containing 200 ng/mL tolbutamide and 200 ng/mL labetalol in acetonitrile solution) was added first, followed by 10 μL of NADPH regeneration system working solution.
(§24) 3: After the pre-incubation of Blank60, T5, T10, T20, T30 and T60 incubation plates, 10 μL of NADPH regeneration system working solution was added to each sample well to start the reaction, and 10 μL of 100 mM potassium phosphate buffer was added to the NCF60 sample well.
(§25) 4: After incubation for an appropriate time (such as 5, 10, 20, 30 and 60 min), to each test sample well and control well of the Blank60, T5, T10, T20, T30, T60 and NCF60 plates, 300 μL of stop solution was added to terminate the reaction.
(§26) 5: All sample plates were shaken to mix well and centrifuged at 4000 rpm for 20 min, and 100 μL of the supernatant of the test sample or control sample was taken and diluted with 300 μL of pure water for LC-MS/MS analysis.
(§27) 6: Data analysis: T1/2 and CLint(mic) (μL/min/mg) values were calculated according to the first-order elimination kinetics. The first-order elimination kinetics equation was: […]

[2] = Liver microsome metabolic stability test (rat); format: in vitro ADME; settings: liver microsomes, read-out: CLint (μL/min/mg) Rat
Procedure: as §22, §23, §24, §25, §26, §27

BT474 cell proliferation = assay: In vitro cell proliferation inhibitory activity test (CTG), BT474; format: cell-based; settings: Homo sapiens, BT-474, BT474 cell proliferation
Procedure: as §1, §2, §3, §4, §5, §6, §7, §8, §9, §10, §11, §12, §13, §14, §15, §16, §17, §18, §19, §20, §21

[3] = system: NCI-N87 cell proliferation; assay: In vitro cell proliferation inhibitory activity test (CTG), NCI-N87; format: cell-based; settings: Homo sapiens
Procedure: as §1, §2, §3, §4, §5, §6, §7, §8, §9, §10, §11, §12, §13, §14, §15, §16, §17, §18, §19, §20, §21

HER2 kinase = HER2 kinase (Homo sapiens, UniProt P04626); assay: HER2 kinase activity test (HTRF); format: biochemical
Sequence of HER2 kinase (P04626 23-1255): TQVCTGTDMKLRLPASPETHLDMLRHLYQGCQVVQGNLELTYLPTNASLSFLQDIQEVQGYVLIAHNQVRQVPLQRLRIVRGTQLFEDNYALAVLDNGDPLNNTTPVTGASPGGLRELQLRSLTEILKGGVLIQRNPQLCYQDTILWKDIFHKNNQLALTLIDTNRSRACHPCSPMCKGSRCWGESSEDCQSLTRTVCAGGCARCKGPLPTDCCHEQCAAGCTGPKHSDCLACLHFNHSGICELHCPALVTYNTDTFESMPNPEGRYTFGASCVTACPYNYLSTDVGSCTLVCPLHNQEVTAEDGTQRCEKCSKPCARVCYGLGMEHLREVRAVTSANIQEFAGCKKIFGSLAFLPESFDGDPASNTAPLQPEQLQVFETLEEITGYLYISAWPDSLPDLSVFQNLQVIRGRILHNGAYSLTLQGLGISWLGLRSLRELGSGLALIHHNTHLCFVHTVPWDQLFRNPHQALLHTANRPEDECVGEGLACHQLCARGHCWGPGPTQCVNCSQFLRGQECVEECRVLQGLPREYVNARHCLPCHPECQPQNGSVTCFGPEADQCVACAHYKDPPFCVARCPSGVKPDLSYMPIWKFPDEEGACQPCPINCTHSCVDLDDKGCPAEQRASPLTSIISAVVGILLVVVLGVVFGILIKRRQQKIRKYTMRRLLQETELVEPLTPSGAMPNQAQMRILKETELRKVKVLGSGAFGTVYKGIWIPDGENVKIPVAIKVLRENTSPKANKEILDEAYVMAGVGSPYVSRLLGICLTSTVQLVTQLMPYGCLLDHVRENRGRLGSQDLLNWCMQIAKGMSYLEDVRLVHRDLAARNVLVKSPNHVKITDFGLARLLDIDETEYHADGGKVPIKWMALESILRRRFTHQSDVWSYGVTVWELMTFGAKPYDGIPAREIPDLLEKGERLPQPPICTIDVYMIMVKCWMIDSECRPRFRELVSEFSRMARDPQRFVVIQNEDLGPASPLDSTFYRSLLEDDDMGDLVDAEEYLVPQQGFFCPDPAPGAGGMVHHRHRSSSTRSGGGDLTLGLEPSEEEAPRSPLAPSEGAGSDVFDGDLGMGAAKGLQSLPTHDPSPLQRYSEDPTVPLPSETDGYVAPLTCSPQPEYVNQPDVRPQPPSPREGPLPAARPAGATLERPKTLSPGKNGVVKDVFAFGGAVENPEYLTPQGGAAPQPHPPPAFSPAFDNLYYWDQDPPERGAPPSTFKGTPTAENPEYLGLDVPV
Procedure: Test Example 5: HER2 Kinase Activity Test
1. Her2 Kinase test steps
2) 100 nl of the diluted compound working solution was transferred into each well of a reaction plate (784075, Greiner) by an Echo 550 liquid hander. The reaction plate was sealed with a sealing film and centrifuged at 1000 g for 1 min.
3) 1 ng/μL Her2 kinase solution was prepared with 1× kinase reaction buffer.
4) 5 μL of the kinase solution prepared above was added to each well of the reaction plate. The plate was sealed with a sealing film, centrifuged at 1000 g for 1 min, and placed at room temperature for 10 min.
5) A mixture of 2× kinase substrate and ATP was prepared by using 1× kinase reaction buffer, and the 2× Her2 kinase substrate was 2 μM TK-substrate-biotin and 4 μM ATP
6) 5 μL of the mixture of 2× TK-substrate-biotin and ATP was added to the reaction plate, centrifuged at 1000 g for 30 seconds to start the reaction.
7) Her2 kinase test was performed at room temperature for 50 min of reaction.
9) 10 μL of the mixture of Sa-XL 665 and TK-antibody-Cryptate was added to each well, centrifuged at 1000 g for 30 seconds, and reacted at room temperature for 1 h.
10) The fluorescence signals at 615 nm (Cryptate) and 665 nm (XL665) were read by Envision 2104.
1) The percentage inhibition was calculated as follows: […]
Ratiopositive control: average value of Ratio 665/615 nm of all positive control wells in the plate.
Rationegative control: average value of Ratio 665/615 nm of all negative control wells in the plate.
2) Calculation of IC50 and fitting of dose-effect curve of compound:
The IC50 of the compound was derived using the following nonlinear fitting formula with GraphPad 6.0.
Y=Bottom+(Top−Bottom)/(1+10^((Log IC50−X)×HillSlope)).
X: log value of compound concentration; Y: percentage inhibition of compound

[4] = Blood-brain barrier permeability test, oral, SD rats; format: in vivo; settings: rat, oral 10 mg/kg single dose; for concentration at 1 h / Kp at 1 h: time point 1 h; for concentration at 4 h / Kp at 4 h: time point 4 h
Procedure: Test Example 6: Blood-Brain Barrier Permeability Test
Each test compound was administered orally at a single dose of 10 mg/kg to SD rats for pharmacokinetic study. Each group included 9 rats. The test compound was dissolved in 5% DMSO+10% solutol+85% saline, vortexed for 1-2 min, and ultrasonicated for 5-10 min to prepare into a colorless, transparent and clear administration solution. Animals were fasted overnight before administration. 1 h, 2 h, and 4 h after administration, three SD rats were selected from each group to take about 0.2-0.3 mL of blood through their orbit. The blood sample was placed on ice once collected, and centrifuged to separate the plasma within 15 min (centrifugation conditions: 8000 rpm, 1 min, room temperature). The collected plasma was stored at −20° C. before analysis. Immediately after blood collection, the cerebrospinal fluid and brain tissue were collected. The cerebrospinal fluid was draw out by dural puncture with a micro-sampler syringe under direct vision. Namely, about 100 μl of cerebrospinal fluid was collected with a 100 μl micro sample syringe from the rat that was anesthetized by chloral hydrate, with the head-fixed, the back hair-cut off, a transverse incision (2 cm) made at the line connecting the roots of the two ears, and the muscle layer of the neck and skull base bluntly scraped to expose the foramen magnum. The cerebrospinal fluid was stored at −20° C. before analysis. The rat then was sacrificed immediately, with its head cut off. The dissected brain tissue, with the surface capillaries peeled off, was weighed, added with 3 times the amount of cold saline, homogenized by a homogenizer for 1 min, and stored at −20° C. before analysis. 20 μL of plasma sample and brain homogenate sample was respectively added into 200 μL of working internal standard solution (the same volume of vehicle was added to the blank instead of internal standard), vortexed for 1 min, and centrifuged at 13500 rpm for 10 min. 100 μL of the supernatant was taken and analyzed by LC-MS/MS. 20 μL of the cerebrospinal fluid was added into 60 μL of working internal standard solution (the same volume of vehicle, instead of internal standard, was added to the blank), vortexed for 1 min, and centrifuged at 13500 rpm for 10 min. 50 μL of the supernatant was taken and analyzed by LC-MS/MS.

[5] = system: TMD8 mouse subcutaneous xenograft tumor; assay: TMD8 pharmacodynamic model test; format: in vivo; settings: same dose of 10 mg/kg, FIG. 1
Procedure: Test Example 7: TNMD8 Pharmacodynamic Model Test
Human diffuse large B-cell lymphoma TMD8 cells were monolayer-cultured in vitro in RPNHI1640 medium with […], 100 U/mL penicillin and 100 μg/mL streptomycin, in a 37° C., […] incubator. Routine digestion with trypsin-EDTA was performed twice a week for passaging. When the cell density was […] and the number reached the requirement, cells were harvested, counted and inoculated. 0.2 ml (1×10^7 cells) of TMVD8 cells (added with matrigel at a volume ratio of 1:1) were subcutaneously inoculated on the right back of each mouse. The mice were administered in groups when the average tumor volume reached about 137 mm^3. Tumor diameters were measured twice a week with vernier calipers. The tumor volume was calculated by the formula V=0.5 a×b^2, where a and b represent the long and short diameters of the tumor, respectively.

[6] = brain, read-out: Drug concentration in brain tissue
[7] = brain/plasma, read-out: Brain tissue/plasma
[8] = cerebrospinal fluid, read-out: Drug concentration in cerebrospinal fluid
[9] = cerebrospinal fluid/plasma, read-out: Cerebrospinal fluid/plasma
[10] = plasma, read-out: Plasma drug concentration

SMILES: COc1ccc(F)cc1C(=O)NCc1ccc(-c2nn([C@@H](C)C(F)(F)F)c(N)c2C(N)=O)cc1 [LOXO-305]
- IC50 (TMD8 cell proliferation): 184 nM
- IC50 (DOHH2 cell proliferation): 4990 nM

SMILES: O=C(c1ccc(Oc2ccccc2)cc1Cl)c1c[nH]c2ncnc(N[C@@H]3CC[C@@H](CO)OC3)c12 [ARQ-531, reference compound]
- microsomal CLint [1]: < 9.6 µL/min/mg
- microsomal CLint [2]: < 9.6 µL/min/mg
- IC50 (TMD8 cell proliferation): 74.6 nM
- IC50 (DOHH2 cell proliferation): 174 nM

SMILES: Nc1nccn2c(C34CCC(CO)(CC3)OC4)nc(-c3ccc(C(F)(F)c4cccc(F)c4Cl)cc3)c12 [Example 146]
- IC50 (BT474 cell proliferation): 86.9 nM
- IC50 [3]: 82 nM
- IC50 (HER2 kinase): 3.92 nM
- concentration at 1 h [4, 6]: 296 ng/g
- concentration at 4 h [4, 6]: 410 ng/g
- Kp at 1 h [4, 7]: 0.78
- Kp at 4 h [4, 7]: 1.1
- concentration at 1 h [4, 8]: 27.4 ng/mL
- concentration at 4 h [4, 8]: 34.3 ng/mL
- Kp at 1 h [4, 9]: 0.072
- Kp at 4 h [4, 9]: 0.092
- concentration at 1 h [4, 10]: 380 ng/mL
- concentration at 4 h [4, 10]: 373 ng/mL

SMILES: COc1cccc(Oc2ccc(-c3nc(C4CCC(CO)OC4)n4ccnc(N)c34)cc2)c1C#N (single isomer, unassigned) [Example 89-P1]
- microsomal CLint [1]: < 9.6 µL/min/mg
- microsomal CLint [2]: 15.7 µL/min/mg
- IC50 (TMD8 cell proliferation): 4.3 nM
- inhibitory effect against the tumor compared with ARQ-531 and ibrutinib [5]: significantly better inhibitory effect against the tumor than the clinical phase II drug ARQ-531 and the marketed drug ibrutinib

SMILES: Nc1nccn2c(C34CCC(CO)(CC3)OC4)nc(-c3ccc(C(F)(F)c4cccc(F)c4F)cc3)c12 [Example 130]
- IC50 (BT474 cell proliferation): 89.9 nM
- IC50 [3]: 100 nM
- IC50 (HER2 kinase): 4.35 nM

SMILES: CC#CC(=O)N1CC[C@@H](n2c(=O)n(-c3ccc(Oc4ccccc4)cc3)c3c(N)ncnc32)C1 [Tirabrutinib, reference compound]
- microsomal CLint [1]: 13.1 µL/min/mg
- microsomal CLint [2]: 32.9 µL/min/mg
- IC50 (TMD8 cell proliferation): 158 nM
- IC50 (DOHH2 cell proliferation): 8090 nM
- concentration at 1 h [4, 6]: 84 ng/g
- concentration at 2 h ([4]; brain, time point 2 h, read-out: Drug concentration in brain tissue): 31.1 ng/g
- concentration at 4 h [4, 6]: 13.3 ng/g
- Kp at 1 h [4, 7]: 0.118
- Kp at 2 h ([4]; brain/plasma, time point 2 h, read-out: Brain tissue/plasma): 0.06
- Kp at 4 h [4, 7]: 0.054
- concentration at 1 h [4, 10]: 713 ng/mL
- concentration at 2 h ([4]; plasma, time point 2 h, read-out: Plasma drug concentration): 515 ng/mL
- concentration at 4 h [4, 10]: 226 ng/mL

SMILES: Nc1nccn2c(C34CCC(CO)(CC3)OC4)nc(-c3ccc(C(F)(F)c4cccc(F)c4)cc3)c12 [Example 142]
- IC50 (BT474 cell proliferation): 153 nM
- IC50 [3]: 106 nM
